In US20210260010A1, “COMPOSITIONS AND METHODS FOR THE REDUCTION OR TREATMENT OF INFLAMMATION” (AXCELLA HEALTH INC., priority 2018, published 2021):

Tested on: MCP1/CCL2
Assay: MCP1/CCL2 secretion by primary human hepatocytes exposed to free fatty acids and TNF-α (ELISA)
Type: cell-based
Settings: for MCP1 expression relative to Control- Donor 1, Mean: donor 1 hepatocytes; for MCP1 expression relative to Control- Donor 1, Mean / MCP1 expression relative to Control- Donor 2, Mean: FFA + TNF-α, baseline subtracted; for MCP1 expression relative to Control- Donor 2, Mean: donor 2 hepatocytes; for MCP1/CCL2 secretion (baseline subtracted): primary human hepatocytes from two healthy donors, FFA 250 uM + TNF-α 1 ng/ml
Experimental: Hepatocyte lipotoxicity appears to be a central driver of hepatic cellular injury via oxidative stress and endoplasmic reticulum (ER) stress. The ability of amino acids to influence steatosis (lipid accumulation) and inflammation in hepatocytes was assessed using human primary hepatocytes (Lonza, TRL).
Primary hepatocytes lot nos. from two healthy human donors were seeded on day 0 at density of 6e04 cells in 96 well optical microplates (Thermofisher) in hepatocyte plating media (William's E medium (Gibco) supplemented with 10% heat-inactivated FBS (Atlanta Bio), 2 mM Glutamax (Gibco) and 0.2% Primocin (InVivoGen) and incubated for 6 hours at 37° C., 5% CO2. After 6 hours, cells were washed twice and incubated overnight at 37° C., 5% CO2 with Hepatocytes defined medium (Corning) supplemented with 2 mM Glutamax (Gibco) and 1× Penicillin/Streptomycin. On day 1, cells were washed twice and incubated for 24 h in the hepatocyte culture media in the same conditions described above.
On day 2, cells were washed twice with DPBS 1× (Gibco) and maintained in amino acid-free WEM (US Biologicals) containing a defined custom amino acid concentration based on the mean physiological concentrations in blood. The values are published in the Human Metabolome Database (Wishart D S, Tzur D, Knox C, et al., HMDB: the Human Metabolome Database. Nucleic Acids Res. January 2007; 35(Database issue):D521-6. 17202168; which is hereby incorporated by reference in its entirety). This custom media is supplemented with 11 mM Glucose, 0.272 mM Sodium Pyruvate, and a dose curve of defined amino acid compositions (i.e., vehicle, LIVRQ+N-acetylcysteine, LIVRQ, RQ+N-acetylcysteine, N-acetylcysteine alone, LIV, or individually with L-Leucine, L-Isoleucine, L-Valine, L-Arginine, L-Glutamine, and L-Cysteine) at various ranges of concentrations. Cells were maintained in this defined media for 24 hours at 37° C., 5% CO2.
After pre-treatment, cells were exposed to free fatty acids (FFA) at 250 uM with a ratio of 2:1 (Oleate:Palmitate) supplemented with TNF-α (Thermofisher) at 1 ng/ml or vehicle. Cells were incubated with the FFAs mixture and the different amino acids combinations for 24 hours at 37° C., 5% CO2. After 24 hours incubation, media was removed for cytokine analysis and replaced by fresh media containing the same stimulus conditions and amino acid concentrations. Cells were incubated for an additional 48 hours for a total of 72 hours of FFA and TNFα stimulation.
Human CCL2 (MCP-1) was measured by ELISA (Human […] DuoSet ELISA, R&D Systems) at ⅕ or 1/10 dilution in 1× Reagent Diluent (Reagent Ancillary Kit 2, R&D Systems). Data were normalized to the specific per well cell density determined by nuclei count stained by Hoechst 3342 (Life technologies) in the fluorescence microscopy described below.

[1] = Conc. 66 μM (baseline comparator)
[2] = Conc. 109 μM (baseline comparator)
[3] = Conc. 234 μM (baseline comparator)
[4] = Conc. 153 μM (baseline comparator)
[5] = Conc. 749 μM (baseline comparator)

CC(=O)N[C@@H](CS)C(=O)O [NAC, N-acetylcysteine]
MCP1 expression relative to Control- Donor 1, Mean (Conc. 1000 μM): −0.7629
MCP1 expression relative to Control- Donor 2, Mean (Conc. 1000 μM): 1.602
MCP1 expression relative to Control- Donor 1, Mean (Conc. 2500 μM): −2.498
MCP1 expression relative to Control- Donor 2, Mean (Conc. 2500 μM): −4.0591
MCP1 expression relative to Control- Donor 1, Mean (Conc. 5000 μM): −10.8919
MCP1 expression relative to Control- Donor 2, Mean (Conc. 5000 μM): −10.5725
MCP1 expression relative to Control- Donor 1, Mean (Conc. 10000 μM): −17.6065
MCP1 expression relative to Control- Donor 2, Mean (Conc. 10000 μM): −28.4419
MCP1 expression relative to Control- Donor 1, Mean (Conc. 5 X): −0.7629
MCP1 expression relative to Control- Donor 1, Mean (Conc. 10 X): −2.498
MCP1 expression relative to Control- Donor 1, Mean (Conc. 20 X): −10.8919
MCP1 expression relative to Control- Donor 1, Mean (Conc. 40 X): −17.6065
MCP1 expression relative to Control- Donor 2, Mean (Conc. (X) 1000): 1.602
MCP1 expression relative to Control- Donor 2, Mean (Conc. (X) 2500): −4.0591
MCP1 expression relative to Control- Donor 2, Mean (Conc. (X) 5000): −10.5725
MCP1 expression relative to Control- Donor 2, Mean (Conc. (X) 10000): −28.4419
MCP1/CCL2 secretion (baseline subtracted): significantly decrease

CC[C@H](C)[C@H](N)C(=O)O [Isoleucine, L-Isoleucine]
MCP1 expression relative to Control- Donor 1, Mean [1]: −1.2E−15
MCP1 expression relative to Control- Donor 2, Mean [1]: 0
MCP1 expression relative to Control- Donor 1, Mean (Conc. 1328 μM): −0.3073
MCP1 expression relative to Control- Donor 2, Mean (Conc. 1328 μM): 26.62
MCP1 expression relative to Control- Donor 1, Mean (Conc. 3320 μM): −2.417
MCP1 expression relative to Control- Donor 2, Mean (Conc. 3320 μM): −5.645
MCP1 expression relative to Control- Donor 1, Mean (Conc. 6639 μM): −0.205
MCP1 expression relative to Control- Donor 2, Mean (Conc. 6639 μM): 18.62
MCP1/CCL2 secretion (baseline subtracted): did not have an effect

N=C(N)NCCC[C@H](N)C(=O)O [Arginine, L-Arginine]
MCP1 expression relative to Control- Donor 1, Mean [2]: 2.37E−15
MCP1 expression relative to Control- Donor 2, Mean [2]: −4.7E−15
MCP1 expression relative to Control- Donor 1, Mean (Conc. 1088 μM): 5.114
MCP1 expression relative to Control- Donor 2, Mean (Conc. 1088 μM): 24.95
MCP1 expression relative to Control- Donor 1, Mean (Conc. 2720 μM): 6.527
MCP1 expression relative to Control- Donor 2, Mean (Conc. 2720 μM): 24.06
MCP1 expression relative to Control- Donor 1, Mean (Conc. 5440 μM): 10.9386
MCP1 expression relative to Control- Donor 2, Mean (Conc. 5440 μM): 8.494
MCP1/CCL2 secretion (baseline subtracted): increased

CC(C)[C@H](N)C(=O)O [Valine, L-Valine]
MCP1 expression relative to Control- Donor 1, Mean [3]: −2.4E−15
MCP1 expression relative to Control- Donor 2, Mean [3]: −1.4E−14
MCP1 expression relative to Control- Donor 1, Mean (Conc. 4684 μM): 23.6867
MCP1 expression relative to Control- Donor 2, Mean (Conc. 4684 μM): 10.79
MCP1 expression relative to Control- Donor 1, Mean (Conc. 11710 μM): 77.73
MCP1 expression relative to Control- Donor 2, Mean (Conc. 11710 μM): 38.25
MCP1 expression relative to Control- Donor 1, Mean (Conc. 23420 μM): 14.17
MCP1 expression relative to Control- Donor 2, Mean (Conc. 23420 μM): −30.7921
MCP1/CCL2 secretion (baseline subtracted): did not have an effect

CC(C)C[C@H](N)C(=O)O [Leucine, L-Leucine]
MCP1 expression relative to Control- Donor 1, Mean [4]: 5.92E−16
MCP1 expression relative to Control- Donor 2, Mean [4]: −4.7E−15
MCP1 expression relative to Control- Donor 1, Mean (Conc. 3054 μM): 3.34
MCP1 expression relative to Control- Donor 2, Mean (Conc. 3054 μM): 16.11
MCP1 expression relative to Control- Donor 1, Mean (Conc. 7635 μM): 1.896
MCP1 expression relative to Control- Donor 2, Mean (Conc. 7635 μM): −2.988
MCP1 expression relative to Control- Donor 1, Mean (Conc. 15270 μM): −1.368
MCP1 expression relative to Control- Donor 2, Mean (Conc. 15270 μM): −26.6436
MCP1/CCL2 secretion (baseline subtracted): did not have an effect

NC(=O)CC[C@H](N)C(=O)O [Glutamine, L-Glutamine]
MCP1 expression relative to Control- Donor 1, Mean [5]: 0
MCP1 expression relative to Control- Donor 2, Mean [5]: 2.84E−14
MCP1 expression relative to Control- Donor 1, Mean (Conc. 3747 μM): −0.8981
MCP1 expression relative to Control- Donor 2, Mean (Conc. 3747 μM): −45.0574
MCP1 expression relative to Control- Donor 1, Mean (Conc. 11242 μM): −9.001
MCP1 expression relative to Control- Donor 2, Mean (Conc. 11242 μM): −90.6558
MCP1 expression relative to Control- Donor 1, Mean (Conc. 22484 μM): −21.8392
MCP1 expression relative to Control- Donor 2, Mean (Conc. 22484 μM): −138.873
MCP1/CCL2 secretion (baseline subtracted): significantly decrease
